Measured values published in patent US10154992B2, “Compounds and methods for treating HIV infection” (THE REGENTS OF THE UNIVERSITY OF CALIFORNIA, priority 2016, dated 2018).
Values after ≈ are worked out from the molar mass of the structure shown. Like-named read-outs stand apart in the source and are kept apart here.

What was measured:
HIV-1 isolate NL4-3 = assay: Virus spreading / replication assay in Jurkat cells, p24 ELISA; format: cell-based
Procedure: (§1) Virus spreading assay. Jurkat (E6-1) cells (NIH AIDS Reagent Program) were cultured in RPMI media supplemented with 25 mM HEPES pH 7.4, 10% heat-inactivated fetal calf serum (Hyclone, Waltham Mass.), and 1% penicillin/streptomycin. 2.5×10^5 Jurkat cells were inoculated with 250 pg p24 in 250 μl media in a 96-well flat bottom polystyrene cell culture microplate. Input virus was removed after 18 hours via washing cells phosphate-buffered saline (PBS). Cells were resuspended in 250 μl of media containing compounds at the described concentrations. Cells were incubated at 37° C., 5% CO2 and supernatant samples were removed every 48 hours and replaced with fresh media containing the compounds. Viral replication was quantified using ELISA to quantify p24 viral capsid protein in the culture supernatant. Mouse monoclonal and rabbit polyclonal α-p24 antibodies used in the ELISA were obtained from the NIH AIDS Reagent Program. Toxicity was monitored using the MTT cell viability assay (Mosmann, T. (1983). J Immunol Methods 65, 55-63).

[1] = MTT cell viability in Jurkat replication assay; format: cell-based; conditions: human, Jurkat (E6-1) cells, pH 7.4; Jurkat infectivity assay; read-out: TC50 (MTT cell viability)
Procedure: as §1

[2] = tested on: HIV RRE (Rev-dependent) reporter; assay: Rev reporter assay in 293T cells, p24 ELISA; format: cell-based; conditions: Human immunodeficiency virus 1, HEK-293T, Table 2
Procedure: Rev reporter assay. In the Rev reporter assay, 293T cells were transfected with an HIV RRE (Rev-dependent) reporter plus a pSV2 Rev expression plasmid (Hope, T. J., et al. (1990) Proc. Natl. Acad. Sci. USA 87, 7787-7791). Compounds were incubated with the cells for 48 hours and reporter activity was assessed by p24 ELISA. Leptomycin B, an inhibitor of the Crm1 pathway that inhibits Rev-dependent export, was included as a control. The cytotoxicity of each compound was determined in parallel via MTT-based cell viability assays.

[3] = tested on: clinical isolates of HIV-1; assay: HIV-1 replication assay in PBMCs, p24 ELISA; format: cell-based
Procedure: HIV-1 replication assay in PBMCs. Virus isolates were obtained from the NIH AIDS Reagent Program. Human PBMCs, seronegative for HIV and hepatitis B virus (Astarte Biologics, LLC) were stimulated in R-3 medium (RPMI 1640 medium with 25 mM HEPES and L-glutamine, 20% heat-inactivated fetal bovine serum, 1% penicillin/streptomycin, 201U/mL IL-2) with 5 µg/mL phytohemagglutinin (PHA-P) for 48 to 72 h. Stimulated PBMCs were resuspended and diluted in fresh R-3 medium and added to 96-well plates at 5×10^4 cells/well. The 50% tissue culture infective dose (TCID50) of each virus stock was measured by end-point dilution assay described by Reed and Muench (Reed, L. J., and Muench, H. (1938) American Journal of Hygiene 27, 493-497). Spinoculation (1,200×g, 2 hrs) was applied to improve the efficiency of infection.
Cells were infected with 40 TCID50s of virus stock under spinoculation in the presence of different concentrations of test compounds (biological quintuplicate wells/concentration) and incubated at 37° C., 5% CO2 for 7 days. On day 4, half of the supernatant was removed and replaced with fresh R-3 medium containing the appropriate concentration of test compounds. On day 7, cell-free supernantant samples were collected for analysis of p24 antigen expression measured by ELISA described above. Antiviral activity was assessed by the inhibition of p24 expression (Reed, L. J., and Muench, H. (1938) American Journal of Hygiene 27, 493-497.

[4] = Aqueous solubility pH 7.4; format: physicochemical; conditions: aqueous solution, pH 7.4, pH 7.4, aqueous buffer
Source text: (§2) We next evaluated analogs 2b, 2f, 4a, and 4e in a panel of standard in vitro ADME assays to assess drug-like properties and the potential for efficacy in animals.

Caco-2 permeability = format: in vitro ADME; conditions: human
Source text: as §2

[5] = Human liver microsome stability; format: in vitro ADME; conditions: human liver microsomes; read-out: HLM T1/2
Source text: The more lipophilic analogs 4a and 4e also appear more prone to oxidative metabolism in the presence of human liver microsomes. This is perhaps unsurprising given the presence of methoxyphenyl (4a) and benzylic methylene (4e) functions, both potential sites of oxidative metabolism.

[6] = tested on: HIV-1 isolate NL4-3 deleted for Vpu; assay: Replication assay in Jurkat cells with Vpu-deleted virus; format: cell-based; conditions: Human immunodeficiency virus 1, NL43, Jurkat, read-out: IC50 value for isolate NL4-3 deleted for Vpu
Procedure: FIG. 10. In embodiments, HIV viruses that are defective or deleted for Vpu are resistant to the compounds described herein. Replication assays with HIV-1 isolate NL4-3 or NL4-3 deleted for Vpu in Jurkat cells. Replication spreading assays were performed with compound at doses ranging from 1 nM to 316 nM in triplicate. Supernatants were collected every 48-72 hours and p24 values were determined by ELISA. FIG. 10 corresponds to analog 4e with HIV-1 isolate NL4-3 in Jurkat cells and with HIV-1 isolate NL4-3 deleted for Vpu in Jurkat cells.
as §1, with “Cells were incubated at 37° C., 5% CO2 and supernatant samples were removed every 48 hours and replaced with fresh media containing the compounds.” left out, “Mouse monoclonal and rabbit polyclonal α-p24 antibodies used in the ELISA were obtained from the NIH AIDS Reagent Program.” left out, “55-63). […]” for “55-63).”

[7] = tested on: A7854G mutant (RRE) virus; assay: Replication of RRE A7854G resistant virus; format: cell-based, HIV

Q: Which IC50 (HIV-1 isolate NL4-3; Human immunodeficiency virus 1, NL43, Jurkat, FIG. 17, first pair of values, read-out: IC50 NL4-3 control) does the source give for NC(=O)c1cc2c(-c3ccc4c(c3)CCO4)cncc2s1 [Compound 4e, 4-(2,3-dihydro-1-benzofuran-5-yl)thieno[2,3-c]pyridine-2-carboxamide] here?
A: The IC50 was 6.2 nM.

Q: And the IC50 (HIV-1 isolate NL4-3; Human immunodeficiency virus 1, NL43, Jurkat, FIG. 17, second pair of values ('Notably'), read-out: IC50 control)?
A: The IC50 was 25.9 nM.

Q: And the IC50 (HIV-1 isolate NL4-3; Human immunodeficiency virus 1, NL43, Jurkat, Table 2, NL4-3, read-out: Jurkat HIV-1 replication assay)?
A: Its IC50 is under 100 nM.

Q: What about the IC50 (HIV-1 isolate NL4-3; Human immunodeficiency virus 1, NL43, Jurkat, read-out: IC50 in the HIV replication assay) of the same compound?
A: Its IC50 is 4 nM.

Q: And the IC50 (HIV-1 isolate NL4-3; Human immunodeficiency virus 1, NL43, Jurkat cells, wild type virus, Vpu experiment (FIG. 10), read-out: IC50 value for isolate NL4-3)?
A: Its IC50 is 5 nM.

Q: What about the CC50 [1] of the same compound?
A: Its CC50 is under 40000 nM.

Q: And the EC50 [2]?
A: Its EC50 is 100 to 500 nM.

Q: And the IC50 ([3]; Human immunodeficiency virus 1, BAL, CCR5, PBMC, viral isolate Ba-L, coreceptor CCR5)?
A: Its IC50 is under 100 nM.

Q: What about the IC50 ([3]; Human immunodeficiency virus 1, CCR5, PBMC, viral isolate 92HT593, coreceptor CXCR4, CCR5) of the same compound?
A: The IC50 was under 100 nM.

Q: And the IC50 ([3]; Human immunodeficiency virus 1, CCR5, PBMC, viral isolate 92TH014, coreceptor CCR5)?
A: The IC50 was under 100 nM.

Q: And the IC50 ([3]; Human immunodeficiency virus 1, CCR5, PBMC, viral isolate 93BR021, coreceptor CCR5)?
A: The IC50 was under 100 nM.

Q: And the IC50 ([3]; Human immunodeficiency virus 1, CCR5, PBMC, viral isolate 93BR028, coreceptor CCR5)?
A: The IC50 was under 100 nM.

Q: What about the IC50 ([3]; Human immunodeficiency virus 1, PBMC, PBMC, viral isolate 92HT599, coreceptor CXCR4) of the same compound?
A: Its IC50 is under 100 nM.

Q: And the IC50 ([3]; Human immunodeficiency virus 1, PBMC, PBMC, viral isolate 92UG005, coreceptor CXCR4)?
A: The IC50 was under 100 nM.

Q: And the IC50 ([3]; Human immunodeficiency virus 1, PBMC, PBMC, viral isolate LAI, coreceptor CXCR4)?
A: Its IC50 is 100 to 500 nM.

Q: What about the solubility [4] of the same compound?
A: Its solubility is 0.28 µM (≈ 0.083 µg/mL).

Q: What about the Papp (Caco-2 permeability) of the same compound?
A: The Papp was 66.6 ×10⁻⁶ cm/s.

Q: What about the half-life [5] of the same compound?
A: Its half-life is 18 min.

Q: What about the IC50 [6] of the same compound?
A: Its IC50 is 150 nM.

Q: And the IC50 ([7]; Human immunodeficiency virus 1, read-out: IC50 A7854G mutant)?
A: The IC50 was 218 nM.

Q: And the IC50 ([7]; Human immunodeficiency virus 1, read-out: IC50 resistant-virus)?
A: Its IC50 is 5.1 nM.
